Test results as given in publication PMC12518634, “The noncanonical function of liver-type phosphofructokinase potentiates the efficacy of HDAC inhibitors in cancer” (Signal Transduction and Targeted Therapy, 2025).
Read-outs that look alike come from different tables or passages of the source.

Legend:
1405R3 = test: High-throughput drug screen, CellTiter-Glo viability, 72 h; format: cell-based, human; parameters: AUC: scale not given here; settings: 1405R3 DSRT analysis; for AUC: area under the dose-response curve; for MIN: lower asymptote of fitted dose-response curve; for EC50: fitted dose-response curve, Min.Conc.tested 1, Max.Conc.tested 10000, CellTiter-Glo, 72 h, read-out: EC50; for SLOPE: slope of fitted dose-response curve
Method in brief: (§1)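 Cholangiocarcinoma cells were seeded at 3000/well in 384-well plates and dosed after 24 h. Drugs were tested at 10, 1, 0.1, 0.01 and 0.001 μM in duplicate for 72 h, with viability read by CellTiter-Glo luminescence.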

783C-6 = test: as above; format: cell-based, human; parameters: AUC: scale not given here; settings: for AUC: area under the dose-response curve; for EC50: 72 h, read-out: EC50
Method in brief: as §1

[1] = 783C-6 DSRT analysis, DSS calculated from the dose-response curve
[2] = 783C-6 DSRT analysis, MIN of the fitted dose-response curve
[3] = 783C-6 DSRT analysis, slope of the fitted dose-response curve
[4] = 783C-6 cells, DSS of DSRT analysis
[5] = 783C-6 cells, minimum of dose-response curve
[6] = 783C-6 cells, slope of fitted dose-response curve

Molecule	DSS (1405R3; DSS)	AUC (1405R3)	MIN (1405R3)	DSS (783C-6; [1])	MIN (783C-6; [2])	AUC (783C-6; 783C-6 DSRT analysis)	EC50 (1405R3; Homo sapiens)	EC50 (783C-6; Homo sapiens)	SLOPE (1405R3)	SLOPE (783C-6; [3])	DSS (1405R3; drug sensitivity score)	DSS (783C-6; [4])	AUC (783C-6; 783C-6 cells)	MIN (783C-6; [5])	SLOPE (783C-6; [6])	EC50 (1405R3)	EC50 (783C-6; 783C-6 DSRT analysis, CellTiter-Glo viability, fitted dose-response curve, Min.Conc.tested 1, Max.Conc.tested 10000)
CS(=O)(=O)CCNCc1ccc(-c2ccc3ncnc(Nc4ccc(OCc5cccc(F)c5)c(Cl)c4)c3c2)o1 [Lapatinib]	0	0	99.9	0	93.5	2	–	–	–	–	–	–	–	–	–	–	–
COc1ccc(-c2nc(N3CCOCC3)c3sc(CN(C)c4ncc(C(=O)NO)cn4)cc3n2)cn1 [CUDC-907]	22.6	188.1	0.8	21.1	2.9	175.2	0.127 µM	0.157 µM	–	–	–	–	–	–	–	–	–
COc1cc2nccc(Oc3ccc(NC(=O)NC4CC4)c(Cl)c3)c2cc1C(N)=O [Lenvatinib]	0	0.1	99.3	0	93.6	8.6	–	–	–	–	–	–	–	–	–	–	–
COc1cc(/C=C/C(=O)CC(=O)/C=C/c2ccc(O)c(OC)c2)ccc1O [Curcumin]	0	1	97.3	0	96.8	2.1	–	–	–	–	–	–	–	–	–	–	–
CC[C@H](C)n1cc(C)c2c(C(=O)NCc3c(C)cc(C)[nH]c3=O)cc(-c3ccc(N4CCNCC4)nc3)cc21 [GSK126]	0	22.4	85.6	0	91	2.7	–	–	-0.1	-1	–	–	–	–	–	–	–
O=C(Nc1ccc(O)c(C(=O)O)c1)c1cccc(NC(=O)c2ccco2)c1 [OSS_128167]	–	8.4	94.6	–	–	–	–	–	-0.1	–	0	0	7.3	92.5	-0.3	–	–
OG-L002	–	0.1	100	–	–	–	–	–	-0.1	–	0	0	3	94.7	-0.5	–	–
COc1cc2nc(N3CCCC3)nc(NCCCCCN3CCCC3)c2cc1OC [UNC0379]	–	39.7	76.2	–	–	–	–	–	-0.4	–	1.9	3.2	30.1	55.3	-2.5	–	–
CCC(CC)n1ccc2c(C(=O)NCc3c(C)cc(C)[nH]c3=O)cc(C#N)cc21 [EI1]	0	0.1	100	0	98.2	0.7	–	–	-0.1	-0.8	–	–	–	–	–	–	–
CCCCCCCc1ccc(CCc2cccc(O)c2C(=O)O)cc1 [MG149]	0	18.5	85.7	0	87.6	3.7	–	–	-0.2	-1	–	–	–	–	–	–	–
COc1cc2c(NC3CCN(C)CC3)cc(-c3ccc(C)o3)nc2cc1OCCCN1CCCC1 [CM272]	6.8	59.8	15.5	13.1	28.5	107.8	–	–	-2.5	-2.5	–	–	–	–	–	1.98 µM	0.311 µM
O=C(NC[C@H](O)CN1CCc2ccccc2C1)c1cc(NC2COC2)ncn1 [EPZ015666]	0	15.4	90.1	0	85	4.5	–	–	–	–	–	–	–	–	–	–	–
CCN(CC)Cc1ccc2cc(COC(=O)Nc3ccc(C(=O)NO)cc3)ccc2c1 [Givinostat]	9.2	79.9	1.5	9.2	1.5	81.1	1.55 µM	1.52 µM	–	–	–	–	–	–	–	–	–
CN(C)Cc1c(C(=O)NCCOc2ccc(C(=O)NO)cc2)oc2ccccc12 [Abexinostat]	6	53	14.8	5.3	6.1	48.2	2.42 µM	3.13 µM	–	–	–	–	–	–	–	–	–
